This note sets out measurements from patent US20240366629A1, “Porphyrin Complexes as Antidotes for Carbon Monoxide Exposure and Methods of Use for Same” (priority 2021, published 2024).

Data set [1] can be described thus: Solubility in water and methanol.
The next data set deals with CO-treated RBCs. The data set can be described thus: Time-course CO removal from CO-treated RBCs (absorbance at 420 nm). In kind it is cell-based, bovine. The settings on record: quiescent suspension of CO-poisoned RBCs in buffered dithionite solution, 1 equiv of 6 (reduced in situ to 7). The method, then:
Time-Course CO Removal From CO-Treated RBCs Defibrinated bovine blood (Hemostat Laboratories) was diluted with PBS containing 5.7 mM sodium dithionite. CO was bubbled through this suspension for 5 s. This mixture was centrifuged for 30 s at 760×g. The supernatant was discarded, and the pellet was washed with PBS containing 5.7 mM sodium dithionite. This washing was repeated three more times to remove excess CO. An aliquot of the stock suspension of CO-treated RBCs was added to a quartz cuvette containing 1 mL of DI water to lyse the cells. The concentration of COHb was assessed by measuring the absorbance at 420 nm (ε=10^5.63) of this lysate. For time-course CO removal, an aliquot of the stock suspension of CO-treated RBCs was diluted to 1 mL with PBS containing 5.7 mM sodium dithionite. A full equivalent of compound 6 (which is reduced in situ to 7) was added, the suspension was rapidly mixed, and absorbance at 420 nm was monitored continuously (FIG. 12).

“5,10,15,20-tetrakis(2,6-di(3,5-difluoro)phenyl-4-(trimethylsilyl) phenyl) porphyrin [Compound 2-2b]”: the “solubility in water and methanol” value in data set [1] is on record as “completely insoluble”. On the same count and under the same terms, with `C[Si](C)(C)c1cc(-c2ccccc2)c(-c2c3nc(c(-c4c(-c5ccccc5)cc([Si](C)(C)C)cc4-c4ccccc4)c4ccc([nH]4)c(-c4c(-c5ccccc5)cc([Si](C)(C)C)cc4-c4ccccc4)c4nc(c(-c5c(-c6ccccc6)cc([Si](C)(C)C)cc5-c5ccccc5)c5ccc2[nH]5)C=C4)C=C3)c(-c2ccccc2)c1` [Compound 2-2a, 5,10,15,20-tetrakis(2,6-diphenyl-4-(trimethylsilyl)phenyl) porphyrin] the entry was “completely insoluble”; with `O=S(=O)([O-])c1cc(-c2ccccc2)c(-c2c3nc(c(-c4c(-c5ccccc5)cc(S(=O)(=O)[O-])cc4-c4ccccc4)c4ccc([nH]4)c(-c4c(-c5ccccc5)cc(S(=O)(=O)[O-])cc4-c4ccccc4)c4nc(c(-c5c(-c6ccccc6)cc(S(=O)(=O)[O-])cc5-c5ccccc5)c5ccc2[nH]5)C=C4)C=C3)c(-c2ccccc2)c1.[Na+].[Na+].[Na+].[Na+]` [Compound 2-3a, sodium 5,10,15,20-tetrakis(2,6-diphenyl-4-(sulfonato)phenyl)porphyrin], “readily dissolved”; with `O=S(=O)([O-])c1cc(-c2cc(F)cc(F)c2)c(-c2c3nc(c(-c4c(-c5cc(F)cc(F)c5)cc(S(=O)(=O)[O-])cc4-c4cc(F)cc(F)c4)c4ccc([nH]4)c(-c4c(-c5cc(F)cc(F)c5)cc(S(=O)(=O)[O-])cc4-c4cc(F)cc(F)c4)c4nc(c(-c5c(-c6cc(F)cc(F)c6)cc(S(=O)(=O)[O-])cc5-c5cc(F)cc(F)c5)c5ccc2[nH]5)C=C4)C=C3)c(-c2cc(F)cc(F)c2)c1.[Na+].[Na+].[Na+].[Na+]` [Compound 2-3b, sodium 5,10,15,20-tetrakis(2,6-di(3,5-difluoro)phenyl-4-(sulfonato)phenyl)porphyrin], “readily dissolved”.

Consider “Sodium 5,10,15,20-tetrakis(2,6-diphenyl-4-(sulfonate)phenyl)porphyrinatohydroxoiron(III) [Compound 6]”, for which the “time to essentially complete reaction (decrease of COHb absorbance at 420 nm)” value with CO-treated RBCs was at most 3 min.
